From patent EP0173480A2, “The antiviral use of phyllanthostatins” (priority 1984, dated 1986)

What was measured:
Format in all cases: in vivo
[1] = Drug toxicity in non-infected female mice treated intravaginally; conditions: zinc acetate intravaginally 3 x daily x 5 days, compared with saline
Protocol: Where indicated, non-infected mice (5 per group) were treated identically (3 times daily x 5) in order to determine drug toxicity. The groups of mice were weighed at the indicated times.
Non-infected female mice were treated intravaginally with the same drugs, at the same concentrations and with a schedule (3 x daily x 5 days). Animal weights were determined at the time of initiation of treatment (day 0), and again on day 4 (after 12 treatments were given), and again after treatments had been concluded on days 7, 11 and 15. The weights of the groups of mice treated with placebo or the high drug concentrations are shown on Table 3, and the differences in weights in Figure 4. […] Weight gains in mice treated with phyllanthoside (1 mg/ml) were slightly less than that of the above compounds, but by day 15, the mice had the same gain as those treated with phyllanthostatin I, saline or zinc acetate.

[2] = test system: Herpes Simplex virus type 2 (HSV-2, strain 35D); test: Genital HSV-2 infection of female mice, intravaginal treatment, survival; conditions: for %S (percent survivors) / MDD (mean day of death): N 14; for deaths: zinc acetate (0.1M)
[3] = test system: Herpes Simplex virus type 2 (HSV-2, strain 35D); test: Genital HSV-2 infection of female mice, virus titers in vaginal secretions; conditions: 8.0 x 10^4 PFU; for Mean virus titer in swabs of mice which shed virus: value in brackets;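 on Mean virus titer in swabs of mice which shed virus: titer expressed as log PFU per ml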
[4] = 8.0 x 10^3 PFU/0.1 ml, mg/ml cell empty (44 mg/ml in upper section)
[5] = 8.0 x 10^4 PFU/0.1 ml, 44 mg/ml intravaginally
[6] = day 2 after HSV-2 inoc., Zn(OAc)2 concentration not given
[7] = day 3 after HSV-2 inoc., Zn(OAc)2 concentration not given
[8] = day 4 after HSV-2 inoc., Zn(OAc)2 concentration not given

## zinc acetate [Zn(OAc)2, reference compound]
[1]
  weight changes: essentially the same
[2]; [4]
  %S (percent survivors): 79%
  MDD (mean day of death): 3.0 days
[2]; 8.0 x 10^3 PFU, two of the three deaths on day 4, probably not virus related
  deaths: 21.4%
[2]; [5]
  %S (percent survivors): 71%
  MDD (mean day of death): 8.3 days
[2]; 8.0 x 10^4 PFU
  deaths: 50%
[2]; second study, 8.0 x 10^4 PFU in 0.1 ml, positive control, concentration not given, 10 mice
  mice protected from lethal infection: 80%
[3]; day 1 after HSV-2 inoc., Zn(OAc)2 concentration not given
  Mean virus titer in swabs of mice which shed virus: (2.60) log PFU/ml
[3]; day 1 after HSV-2 inoc., Zn(OAc)2 concentration not printed
  Nv/Nt, swabs with virus/total swabs: 1/10
[3]; day 1 after HSV-2 inoc., Zn(OAc)2 concentration not printed, listed as zinc acetate
  Nv/Nt, swabs with virus/total swabs: One of 10
[3]; [6]
  Nv/Nt, swabs with virus/total swabs: 1/10
  Mean virus titer in swabs of mice which shed virus: (3.54) log PFU/ml
[3]; [7]
  Nv/Nt, swabs with virus/total swabs: 1/10
  Mean virus titer in swabs of mice which shed virus: (3.42) log PFU/ml
[3]; [8]
  Nv/Nt, swabs with virus/total swabs: 1/9
  Mean virus titer in swabs of mice which shed virus: (4.54) log PFU/ml
[3]; day 7 after HSV-2 inoc., Zn(OAc)2 concentration not given
  Nv/Nt, swabs with virus/total swabs: 0/8
